Source: PubChem BioAssay (NCI)
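Dose response: 5 concentrations. Exposure: 48 h. Format: 96-well plates. Endpoint: linear interpolation; highest concentration if not reached. TGI: concentration producing complete growth inhibition.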

What was measured:
Experiment in all cases: inhibition of tumour cell growth, NCI panel, 48 h
MCF7 breast = system: MCF7 breast
NCI-H226 lung = system: NCI-H226 lung
HCT-116 colon = system: HCT-116 colon
NCI-H23 lung = system: NCI-H23 lung
HOP-62 NSCLC = system: HOP-62 NSCLC
SNB-19 CNS = system: SNB-19 CNS
SNB-75 CNS = system: SNB-75 CNS
T-47D breast = system: T-47D breast
NCI-H522 lung = system: NCI-H522 lung
UACC-257 melanoma = system: UACC-257 melanoma
HCT-15 colon = system: HCT-15 colon
MALME-3M melanoma = system: MALME-3M melanoma
TK-10 renal = system: TK-10 renal
HL-60(TB) leukemia = system: HL-60(TB) leukemia
SF-268 CNS = system: SF-268 CNS
SK-MEL-5 melanoma = system: SK-MEL-5 melanoma
SK-MEL-28 melanoma = system: SK-MEL-28 melanoma
SK-MEL-2 melanoma = system: SK-MEL-2 melanoma
ACHN renal = system: ACHN renal
MDA-N = system: MDA-N
SK-OV-3 ovarian = system: SK-OV-3 ovarian
EKVX NSCLC = system: EKVX NSCLC
MOLT-4 leukemia = system: MOLT-4 leukemia
PC-3 prostate = system: PC-3 prostate
M14 melanoma = system: M14 melanoma
SR leukemia = system: SR leukemia
A498 renal = system: A498 renal
OVCAR-8 ovarian = system: OVCAR-8 ovarian
LOX IMVI melanoma = system: LOX IMVI melanoma
CCRF-CEM leukemia = system: CCRF-CEM leukemia
OVCAR-4 ovarian = system: OVCAR-4 ovarian
HCC-2998 colon = system: HCC-2998 colon
SF-295 CNS = system: SF-295 CNS
DU-145 prostate = system: DU-145 prostate
UACC-62 melanoma = system: UACC-62 melanoma
KM12 colon = system: KM12 colon
MDA-MB-435 = system: MDA-MB-435
IGROV1 ovarian = system: IGROV1 ovarian
K-562 leukemia = system: K-562 leukemia
HS 578T breast = system: HS 578T breast
COLO 205 colon = system: COLO 205 colon
RXF 393 renal = system: RXF 393 renal
SW-620 colon = system: SW-620 colon
U251 CNS = system: U251 CNS
HOP-92 NSCLC = system: HOP-92 NSCLC
NCI-H460 lung = system: NCI-H460 lung
SN12C renal = system: SN12C renal
BT-549 breast = system: BT-549 breast
UO-31 renal = system: UO-31 renal
NCI/ADR-RES ovarian = system: NCI/ADR-RES ovarian
786-0 renal = system: 786-0 renal
OVCAR-5 ovarian = system: OVCAR-5 ovarian
HT29 colon = system: HT29 colon
SF-539 CNS = system: SF-539 CNS
CAKI-1 renal = system: CAKI-1 renal
A549 NSCLC = system: A549 NSCLC
OVCAR-3 ovarian = system: OVCAR-3 ovarian
RPMI-8226 leukemia = system: RPMI-8226 leukemia
MDA-MB-231 breast = system: MDA-MB-231 breast

## CC1=NN(c2nc(N)nc(C(C#N)C(=O)c3cc4c(cc3Cl)Sc3nccn3S4(=O)=O)n2)C(C)(C)C1 (centres undefined)
MCF7 breast
  TGI: > 100 µM
NCI-H226 lung
  TGI: 90 µM
HCT-116 colon
  TGI: > 100 µM
NCI-H23 lung
  TGI: 37.2 µM
HOP-62 NSCLC
  TGI: > 100 µM
SNB-19 CNS
  TGI: > 100 µM
SNB-75 CNS
  TGI: > 100 µM
T-47D breast
  TGI: 77.9 µM
NCI-H522 lung
  TGI: 69.7 µM
UACC-257 melanoma
  TGI: 48.5 µM
HCT-15 colon
  TGI: 67.3 µM
MALME-3M melanoma
  TGI: 48.5 µM
TK-10 renal
  TGI: > 100 µM
HL-60(TB) leukemia
  TGI: 61.1 µM
SF-268 CNS
  TGI: > 100 µM
SK-MEL-5 melanoma
  TGI: 48.1 µM
SK-MEL-28 melanoma
  TGI: > 100 µM
SK-MEL-2 melanoma
  TGI: 53.7 µM
ACHN renal
  TGI: > 100 µM
MDA-N
  TGI: > 100 µM
SK-OV-3 ovarian
  TGI: 51.4 µM
EKVX NSCLC
  TGI: > 100 µM
MOLT-4 leukemia
  TGI: 68.2 µM
PC-3 prostate
  TGI: > 100 µM
M14 melanoma
  TGI: > 100 µM
SR leukemia
  TGI: 25 µM
A498 renal
  TGI: > 100 µM
OVCAR-8 ovarian
  TGI: > 100 µM
LOX IMVI melanoma
  TGI: > 100 µM
CCRF-CEM leukemia
  TGI: 50.3 µM
OVCAR-4 ovarian
  TGI: > 100 µM
HCC-2998 colon
  TGI: 33.8 µM
SF-295 CNS
  TGI: > 100 µM
DU-145 prostate
  TGI: 94.4 µM
UACC-62 melanoma
  TGI: 66.9 µM
KM12 colon
  TGI: > 100 µM
MDA-MB-435
  TGI: > 100 µM
IGROV1 ovarian
  TGI: > 100 µM
K-562 leukemia
  TGI: > 100 µM
HS 578T breast
  TGI: > 100 µM
COLO 205 colon
  TGI: > 100 µM
RXF 393 renal
  TGI: > 100 µM
SW-620 colon
  TGI: > 100 µM
U251 CNS
  TGI: > 100 µM
HOP-92 NSCLC
  TGI: > 100 µM
NCI-H460 lung
  TGI: > 100 µM
SN12C renal
  TGI: > 100 µM
BT-549 breast
  TGI: 98.6 µM
UO-31 renal
  TGI: 67.2 µM
NCI/ADR-RES ovarian
  TGI: > 100 µM
786-0 renal
  TGI: 34 µM
OVCAR-5 ovarian
  TGI: > 100 µM
HT29 colon
  TGI: > 100 µM
SF-539 CNS
  TGI: > 100 µM
CAKI-1 renal
  TGI: > 100 µM
A549 NSCLC
  TGI: > 100 µM
OVCAR-3 ovarian
  TGI: 57 µM
RPMI-8226 leukemia
  TGI: 63.2 µM
MDA-MB-231 breast
  TGI: 55 µM
